These results are taken from PMC8213057, “Targeting ALK2: An Open Science Approach to Developing Therapeutics for the Treatment of Diffuse Intrinsic Pontine Glioma” (Journal of Medicinal Chemistry, 2020).

The test system of assay [1] is DYRK1/DYRK1A.
Assay [2] has as its target FLT4/VEGFR3 (Homo sapiens, UniProt P35916). The note with it: 1 μM; Run 1, Run 2.
Assay [3] has as its target MLK2/MAP3K10 (Homo sapiens, UniProt Q02779). The conditions noted are these: 1 μM; Run 1, Run 2.
Assay [4] deals with T1, TAOK3/JIK (Homo sapiens, UniProt Q9H2K8).
T1 sequence (Q9H2K8 1-898): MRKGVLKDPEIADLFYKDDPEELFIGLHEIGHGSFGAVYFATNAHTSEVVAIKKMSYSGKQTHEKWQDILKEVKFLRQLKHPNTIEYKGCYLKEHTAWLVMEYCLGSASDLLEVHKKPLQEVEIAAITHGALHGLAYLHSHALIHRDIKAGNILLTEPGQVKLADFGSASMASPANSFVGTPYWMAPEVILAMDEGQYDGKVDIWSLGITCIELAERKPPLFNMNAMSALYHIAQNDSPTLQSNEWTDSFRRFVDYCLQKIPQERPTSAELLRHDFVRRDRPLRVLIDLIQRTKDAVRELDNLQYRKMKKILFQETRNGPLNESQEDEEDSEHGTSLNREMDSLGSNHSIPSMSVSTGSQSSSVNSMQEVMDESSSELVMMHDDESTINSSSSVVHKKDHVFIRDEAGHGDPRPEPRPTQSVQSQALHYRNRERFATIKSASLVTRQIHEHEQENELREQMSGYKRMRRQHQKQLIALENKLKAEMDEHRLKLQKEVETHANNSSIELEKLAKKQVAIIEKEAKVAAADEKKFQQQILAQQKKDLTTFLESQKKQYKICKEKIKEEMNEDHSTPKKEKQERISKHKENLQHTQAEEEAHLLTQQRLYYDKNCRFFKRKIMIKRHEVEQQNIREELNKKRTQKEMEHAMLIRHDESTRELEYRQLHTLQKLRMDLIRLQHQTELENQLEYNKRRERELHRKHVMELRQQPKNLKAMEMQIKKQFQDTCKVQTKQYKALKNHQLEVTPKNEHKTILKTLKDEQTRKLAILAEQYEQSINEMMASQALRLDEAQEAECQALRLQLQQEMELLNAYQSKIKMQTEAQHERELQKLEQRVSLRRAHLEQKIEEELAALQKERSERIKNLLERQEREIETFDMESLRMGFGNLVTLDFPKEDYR
The conditions noted are these: 1 μM; Run 1, Run 2.

The target of assay [5] is T2, STK22D/TSSK1 (Homo sapiens, UniProt Q9BXA7).
T2 sequence (Q9BXA7 1-367): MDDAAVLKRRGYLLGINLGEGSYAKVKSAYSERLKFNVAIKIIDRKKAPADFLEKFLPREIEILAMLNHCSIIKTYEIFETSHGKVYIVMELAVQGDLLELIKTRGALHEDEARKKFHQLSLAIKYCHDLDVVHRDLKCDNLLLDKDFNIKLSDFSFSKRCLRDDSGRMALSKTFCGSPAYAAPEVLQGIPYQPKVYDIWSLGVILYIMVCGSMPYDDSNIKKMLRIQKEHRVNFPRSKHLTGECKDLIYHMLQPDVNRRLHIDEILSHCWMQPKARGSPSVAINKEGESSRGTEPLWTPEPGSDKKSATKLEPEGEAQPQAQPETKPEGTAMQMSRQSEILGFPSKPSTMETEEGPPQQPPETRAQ
As to the kind of experiment: biochemical. The note with it: read-out: % enzyme activity, 1 μM; Run 1, Run 2.

The target of assay [6] is T3, TLK1 (Homo sapiens, UniProt Q9UKI8).
T3 sequence (Q9UKI8 1-766): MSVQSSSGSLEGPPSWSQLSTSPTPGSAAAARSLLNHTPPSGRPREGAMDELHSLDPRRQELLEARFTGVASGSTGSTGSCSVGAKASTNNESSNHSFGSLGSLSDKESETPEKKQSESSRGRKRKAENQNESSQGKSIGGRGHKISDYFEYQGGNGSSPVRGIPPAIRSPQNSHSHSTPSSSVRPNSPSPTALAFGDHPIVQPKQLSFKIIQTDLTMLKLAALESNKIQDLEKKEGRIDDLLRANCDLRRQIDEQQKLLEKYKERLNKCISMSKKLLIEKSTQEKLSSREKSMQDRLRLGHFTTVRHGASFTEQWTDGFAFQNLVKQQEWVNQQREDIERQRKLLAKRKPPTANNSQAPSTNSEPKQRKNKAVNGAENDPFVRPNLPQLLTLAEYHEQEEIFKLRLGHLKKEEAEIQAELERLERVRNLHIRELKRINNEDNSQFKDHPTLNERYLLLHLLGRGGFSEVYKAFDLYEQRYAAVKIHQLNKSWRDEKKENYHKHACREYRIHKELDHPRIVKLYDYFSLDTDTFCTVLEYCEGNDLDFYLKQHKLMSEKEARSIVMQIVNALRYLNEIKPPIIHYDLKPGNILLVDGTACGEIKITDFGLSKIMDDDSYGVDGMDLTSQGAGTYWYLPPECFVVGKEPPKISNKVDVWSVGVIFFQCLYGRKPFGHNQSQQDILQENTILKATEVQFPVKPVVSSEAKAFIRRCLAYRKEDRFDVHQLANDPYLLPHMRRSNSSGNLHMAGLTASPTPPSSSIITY
As to the kind of experiment: biochemical. The conditions noted are these: read-out: % enzyme activity, 1 μM; Run 1, Run 2.

Values joined by “and” are separate entries in the source; they are usually repeats but may differ in a detail not shown here. Equal values may be shown once.

FLT4/VEGFR3, sequence (P35916 25-1363): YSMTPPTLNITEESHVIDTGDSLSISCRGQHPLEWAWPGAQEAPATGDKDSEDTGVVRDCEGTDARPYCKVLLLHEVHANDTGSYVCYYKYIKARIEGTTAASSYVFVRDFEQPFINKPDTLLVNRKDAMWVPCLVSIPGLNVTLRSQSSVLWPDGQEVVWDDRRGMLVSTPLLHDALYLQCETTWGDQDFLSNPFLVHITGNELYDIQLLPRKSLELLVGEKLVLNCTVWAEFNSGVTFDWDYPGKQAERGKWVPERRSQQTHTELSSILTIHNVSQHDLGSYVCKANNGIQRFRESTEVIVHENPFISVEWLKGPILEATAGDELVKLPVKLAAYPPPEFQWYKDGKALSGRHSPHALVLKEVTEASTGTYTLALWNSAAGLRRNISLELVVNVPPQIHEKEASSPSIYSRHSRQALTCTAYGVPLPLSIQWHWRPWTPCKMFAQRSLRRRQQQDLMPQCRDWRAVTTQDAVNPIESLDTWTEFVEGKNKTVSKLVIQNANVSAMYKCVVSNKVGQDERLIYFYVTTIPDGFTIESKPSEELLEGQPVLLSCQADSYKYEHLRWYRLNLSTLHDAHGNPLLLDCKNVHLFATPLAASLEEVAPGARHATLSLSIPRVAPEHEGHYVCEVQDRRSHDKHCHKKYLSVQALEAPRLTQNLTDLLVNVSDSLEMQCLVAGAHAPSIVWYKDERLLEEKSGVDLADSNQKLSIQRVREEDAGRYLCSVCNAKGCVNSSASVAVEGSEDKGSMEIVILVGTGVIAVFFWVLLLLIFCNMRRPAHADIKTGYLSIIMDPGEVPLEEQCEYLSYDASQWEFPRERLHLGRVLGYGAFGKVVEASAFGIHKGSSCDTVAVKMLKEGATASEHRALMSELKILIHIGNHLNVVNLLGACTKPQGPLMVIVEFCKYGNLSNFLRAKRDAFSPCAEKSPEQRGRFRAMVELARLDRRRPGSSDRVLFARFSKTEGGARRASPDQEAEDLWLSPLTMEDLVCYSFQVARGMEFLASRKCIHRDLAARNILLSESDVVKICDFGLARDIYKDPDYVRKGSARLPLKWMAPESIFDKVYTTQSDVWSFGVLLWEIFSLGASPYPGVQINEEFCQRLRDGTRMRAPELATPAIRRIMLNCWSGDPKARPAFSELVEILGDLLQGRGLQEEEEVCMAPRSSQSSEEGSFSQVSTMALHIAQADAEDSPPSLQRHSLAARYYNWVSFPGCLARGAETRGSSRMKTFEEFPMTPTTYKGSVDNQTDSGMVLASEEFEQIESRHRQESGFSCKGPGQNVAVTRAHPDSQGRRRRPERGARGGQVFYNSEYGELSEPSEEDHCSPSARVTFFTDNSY
MLK2/MAP3K10, sequence (Q02779 whole entry): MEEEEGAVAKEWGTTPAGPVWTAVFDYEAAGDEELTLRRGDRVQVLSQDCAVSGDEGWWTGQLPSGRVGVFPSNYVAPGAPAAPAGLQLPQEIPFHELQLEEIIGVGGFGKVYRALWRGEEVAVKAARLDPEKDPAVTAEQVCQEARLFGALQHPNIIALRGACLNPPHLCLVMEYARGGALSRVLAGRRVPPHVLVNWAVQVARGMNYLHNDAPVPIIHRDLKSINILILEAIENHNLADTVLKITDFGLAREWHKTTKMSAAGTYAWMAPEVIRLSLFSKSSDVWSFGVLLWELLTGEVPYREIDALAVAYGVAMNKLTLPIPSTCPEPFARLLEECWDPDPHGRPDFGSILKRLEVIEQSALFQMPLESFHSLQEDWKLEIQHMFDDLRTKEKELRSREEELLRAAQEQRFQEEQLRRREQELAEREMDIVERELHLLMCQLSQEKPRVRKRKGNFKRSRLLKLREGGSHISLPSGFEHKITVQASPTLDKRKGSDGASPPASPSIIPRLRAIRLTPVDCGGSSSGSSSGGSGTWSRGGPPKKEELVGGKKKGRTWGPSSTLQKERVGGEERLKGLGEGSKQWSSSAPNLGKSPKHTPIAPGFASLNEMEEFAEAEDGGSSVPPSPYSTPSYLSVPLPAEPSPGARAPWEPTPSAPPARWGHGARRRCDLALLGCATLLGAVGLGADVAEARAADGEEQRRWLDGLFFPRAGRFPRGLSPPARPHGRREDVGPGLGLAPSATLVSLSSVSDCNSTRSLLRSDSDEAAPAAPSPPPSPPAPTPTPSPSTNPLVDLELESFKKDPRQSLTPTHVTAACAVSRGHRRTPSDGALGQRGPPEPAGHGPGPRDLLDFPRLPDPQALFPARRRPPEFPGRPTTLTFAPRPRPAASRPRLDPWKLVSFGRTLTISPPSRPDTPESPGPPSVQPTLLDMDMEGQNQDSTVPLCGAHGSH

Turning to `COc1cc(-c2cncc(-c3ccc(N4C[C@@H](C)N(C)[C@@H](C)C4)cc3)c2C)cc(F)c1C(N)=O` [Compound 26c, 2-Fluoro-6-methoxy-4-(4-methyl-5-(4-((3R,5S)-3,4,5-trimethylpiperazin-1-yl)phenyl)pyridin-3-yl)benzamide], the % enzyme activity at 1 μM in assay [1] is 62.4% and 60%. Further, the “% enzyme activity” value in assay [2] came to 96.61%; in assay [3], 96.07%; in assay [4], 81.51%. Besides, the remaining activity at 1 µM in assay [5] came to 101%; in assay [6], 104%.
Take `COc1cc(-c2cncc(-c3ccc(N4CCN(C)CC4)cc3)c2C)cc(F)c1C(N)=O` [Compound 26a, 2-Fluoro-6-methoxy-4-(4-methyl-5-(4-(4-methylpiperazin-1-yl)phenyl)pyridin-3-yl)benzamide]: the % enzyme activity at 1 μM in assay [1] was 43.3% and 43.1%. In addition, the “% enzyme activity” value in assay [2] was found to be 97.81%; in assay [3], 86.29%; in assay [4], 69.26%. The remaining activity at 1 µM is 97.5% in assay [5] and 108% in assay [6].
